Assay results: PMC12406203 (Journal of Medicinal Chemistry, 2025)
Values joined by “and” are separate entries in the source; they are usually repeats but may differ in a detail not shown here. Equal values may be shown once. Read-outs that look alike come from different tables or passages of the source.

What was measured:
hAChE [1] = system: hAChE
hBChE [2] = system: hBChE
p38α MAPK [3] = system: p38α MAPK
hAChE [4] = target: T1, hAChE (Homo sapiens, UniProt P22303); conditions: residual activity at 100 μM; mean ± SD, one experiment in triplicate
T1 sequence (P22303 32-614): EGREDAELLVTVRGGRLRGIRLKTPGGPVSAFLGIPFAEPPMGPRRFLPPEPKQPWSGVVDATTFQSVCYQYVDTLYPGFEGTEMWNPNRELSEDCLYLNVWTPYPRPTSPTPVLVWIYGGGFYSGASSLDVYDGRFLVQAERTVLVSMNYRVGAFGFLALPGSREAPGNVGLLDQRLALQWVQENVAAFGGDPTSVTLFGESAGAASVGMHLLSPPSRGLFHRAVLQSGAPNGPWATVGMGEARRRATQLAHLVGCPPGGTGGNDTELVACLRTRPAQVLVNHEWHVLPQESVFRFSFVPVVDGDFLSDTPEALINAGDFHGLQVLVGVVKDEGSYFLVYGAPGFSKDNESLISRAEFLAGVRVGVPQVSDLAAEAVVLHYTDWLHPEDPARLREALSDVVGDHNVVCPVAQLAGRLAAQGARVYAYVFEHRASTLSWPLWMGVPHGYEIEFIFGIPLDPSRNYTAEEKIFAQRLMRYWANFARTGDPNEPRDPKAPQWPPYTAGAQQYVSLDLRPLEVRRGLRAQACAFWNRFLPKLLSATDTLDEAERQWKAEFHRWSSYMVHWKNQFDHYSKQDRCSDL
Method: (§1) The inhibitory potencies of the compounds against the ChEs were determined using the method of Ellman. […] The final content of DMSO was always 1% [v/v]. […] The initial velocities in the presence (v i ) and absence (v 0) of the test compounds were calculated. The inhibitory potencies were expressed as the residual activities, according to RA = (v i – b)/(v 0 – b), where b is the blank value using phosphate buffer without ChEs. For IC50 determinations, at least seven different concentrations for each compound were used. The IC50 values were obtained by plotting the residual ChE activities against the applied inhibitor concentrations, with the experimental data fitted to a four-parameter logistic function (GraphPad Prism 10.0).

hBChE [5] = target: T2, hBChE (Homo sapiens, UniProt P06276); conditions: for hBChE RA at 100 μM: residual activity at 100 μM, mean ± SD, one experiment in triplicate
T2 sequence (P06276 29-602): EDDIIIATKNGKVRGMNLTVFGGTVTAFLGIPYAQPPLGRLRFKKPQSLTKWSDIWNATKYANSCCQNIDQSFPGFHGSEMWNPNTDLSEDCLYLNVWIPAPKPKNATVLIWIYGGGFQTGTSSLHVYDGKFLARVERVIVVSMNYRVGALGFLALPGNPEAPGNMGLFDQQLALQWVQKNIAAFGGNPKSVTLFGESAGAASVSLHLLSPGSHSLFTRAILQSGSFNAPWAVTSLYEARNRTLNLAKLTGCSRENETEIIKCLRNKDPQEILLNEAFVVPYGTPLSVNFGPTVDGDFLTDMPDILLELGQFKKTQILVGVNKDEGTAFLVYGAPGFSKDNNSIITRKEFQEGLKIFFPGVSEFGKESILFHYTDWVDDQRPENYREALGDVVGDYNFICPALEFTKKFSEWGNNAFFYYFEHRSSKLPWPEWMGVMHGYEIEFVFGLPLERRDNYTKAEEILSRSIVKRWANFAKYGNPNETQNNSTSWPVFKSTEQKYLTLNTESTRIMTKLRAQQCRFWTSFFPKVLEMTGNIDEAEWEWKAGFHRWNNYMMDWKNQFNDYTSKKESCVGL
Method: as §1

human p38α MAPK [6] = target: T3, human p38α MAPK (Homo sapiens, UniProt Q16539); conditions: for p38α MAPK RA at 100 μM: residual activity at 100 μM, mean ± SD, one experiment in triplicate
T3 sequence (Q16539 whole entry): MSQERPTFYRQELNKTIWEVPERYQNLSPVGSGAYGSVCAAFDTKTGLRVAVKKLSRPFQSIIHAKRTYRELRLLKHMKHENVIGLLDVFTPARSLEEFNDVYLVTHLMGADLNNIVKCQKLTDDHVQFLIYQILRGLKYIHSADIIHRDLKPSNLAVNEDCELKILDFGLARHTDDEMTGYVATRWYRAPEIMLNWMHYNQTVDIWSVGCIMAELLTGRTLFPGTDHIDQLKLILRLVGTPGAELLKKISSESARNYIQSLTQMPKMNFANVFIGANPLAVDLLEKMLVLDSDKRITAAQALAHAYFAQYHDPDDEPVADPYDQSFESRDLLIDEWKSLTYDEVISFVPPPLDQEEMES
Method: (§2) The inhibitory activities against human p38α MAPK were evaluated using the commercially available ADP-Glo Kinase Assay (Promega, Inc., USA).
(§3) For the reference sample, 1% [v/v] DMSO replaced the inhibitor solution. […] The enzyme reaction was started with the addition of the enzyme solution. The DMSO concentration in the test solution was maintained at 1% [v/v]. The plate was incubated for 60 min. Then 5 μL of ADP-Glo reagent was added, followed by a 40 min incubation at room temperature. […] All incubations were performed at room temperature. The RA and IC50 values were calculated as described above (ChEs inhibitory potency).

hBChE [7] = target: T2, hBChE; assay: biochemical; conditions: hBChE IC50 ± SEM, two independent experiments, each in triplicate
Method: as §1

hAChE [8] = target: T1, hAChE; assay: biochemical; conditions: hAChE IC50 ± SEM, two independent experiments, each in triplicate
Method: as §1

human p38α MAPK [9] = target: T3, human p38α MAPK; assay: biochemical; conditions: p38α MAPK IC50 ± SEM, two independent experiments, each in triplicate
Method: as §2, §3

hAChE [10] = target: hAChE; remark: listed apart in the source
p38α MAPK [11] = target: p38α MAPK; remark: listed apart in the source
hBChE [12] = target: hBChE; remark: listed apart in the source

Molecule | RA at 100 µM (hAChE [1]) | RA at 100 µM (p38α MAPK [3]) | hAChE RA at 100 μM (hAChE [4]) | p38α MAPK RA at 100 μM (human p38α MAPK [6]) | IC50 (hBChE [7]) | IC50 (hAChE [8]) | IC50 (human p38α MAPK [9]) | further results
CC(C)Cn1ncc2cc(S(=O)(=O)c3ccc(F)cc3F)c(C(=O)NCCN(C)C)cc21 [Compound 93, 5-((2,4-Difluorophenyl)sulfonyl)-N-(2-(dimethylamino)ethyl)-1-isobutyl-1H-indazole-6-carboxamide] | 98.0 ± 2.7% | 5.9 ± 0.2% | 98.0% and 98.0 ± 2.7% | 5.9 ± 0.2% |  |  |  | RA at 100 µM (hBChE [2]): 77.6 ± 3.1%; hBChE RA at 100 μM (hBChE [5]): 77.6% and 77.6 ± 3.1%
O=C(NCCN1CCOCC1)c1cc2nn(CC3CCCCC3)cc2cc1Oc1ccc(F)cc1F [Compound 103] | 78.3 ± 2.1% | 66.8 ± 5.9% | 78.3 ± 2.1% | 66.8% and 66.8 ± 5.9% | 10.8 ± 2.07 µM |  |  | IC50 (hBChE [2]): 10.8 µM
CN(C)CCCNC(=O)c1cc2nn(CC3CCCCC3)cc2cc1Oc1ccc(F)cc1F [Compound 100, 2-(Cyclohexylmethyl)-5-(2,4-difluorophenoxy)-N-(3-(dimethylamino)propyl)-2H-indazole-6-carboxamide] |  |  |  |  | 0.499 ± 0.045 µM | 41.9 ± 13.9 µM | 16.2 ± 2.97 µM | IC50 (hAChE [1]): 41.9 µM; IC50 (p38α MAPK [3]): 16.2 µM
5-(2,4-Difluorobenzyl)-N-(2-(dimethylamino)ethyl)-1-methyl-2H-indazole-6-carboxamide [Compound 109] |  |  | 81.4 ± 7.5% | 89.6% and 89.6 ± 13.6% |  |  |  | IC50 (hBChE [5]; read-out: hBChE IC50 ± SEM, two independent experiments, each in triplicate): 1.06 ± 0.97 µM
O/N=C/c1cc[n+](COC[n+]2ccc(/C=N/O)cc2)cc1 [Obidoxime, reference compound] |  |  |  |  |  |  |  | CNS (+/–) (predicted BBB permeation from Pe): CNS– (CNS– indicates low predicted BBB permeation [Pe (×10–6 cm/s) < 2.0])
COC1CCCN(CCNC(=O)c2cc3nn(CC4CCCCC4)cc3cc2Oc2ccc(F)cc2F)C1 (stereo not drawn) [Compound 101] | 51.8 ± 1.6% | 94.3 ± 2.4% | 51.8 ± 1.6% | 94.3% and 94.3 ± 2.4% | 0.184 ± 0.031 µM |  |  | IC50 (hBChE [2]): 0.184 µM
CN(C)CCNC(=O)c1cc2c(cnn2CC2CC2)cc1Oc1ccc(F)cc1F [Compound 73, 1-(Cyclopropylmethyl)-5-(2,4-difluorophenoxy)-N-(2-(dimethylamino)ethyl)-1H-indazole-6-carboxamide] |  |  |  |  | 10.5 ± 1.51 µM | 83.9 ± 28.9 µM | 0.362 ± 0.139 µM | IC50 (hAChE [10]): 83.9 µM; IC50 (p38α MAPK [11]): 0.362 µM
CO/N=C(\C(=O)N[C@@H]1C(=O)N2C(C(=O)O)=C(COC(N)=O)CS[C@H]12)c1ccco1 [Cefuroxime, reference compound] |  |  |  |  |  |  |  | CNS (+/–) (PAMPA): CNS– (key: CNS+ indicates high predicted BBB permeation [Pe (×10–6 cm/s) > 4.0]; CNS– indicates low predicted BBB permeation [Pe (×10–6 cm/s) < 2.0])
CC(C)Cn1ncc2cc(Oc3cccc4ccccc34)c(C(=O)NCCN(C)C)cc21 [Compound 89, N-(2-(Dimethylamino)ethyl)-1-isobutyl-5-(naphthalen-1-yloxy)-1H-indazole-6-carboxamide] |  | 0.9 ± 0.3% |  | 0.9 ± 0.3% and 1 ± 0% | 10.6 µM | 61.3 µM |  | IC50 (hAChE [10]): 61.3 µM; RA (1 μM) (p38α MAPK [11]): RA (1 μM): 24 ± 0%; RA (10 μM) (p38α MAPK [11]): RA (10 μM): 5 ± 0%; RA (100 μM) (p38α MAPK [11]): RA (100 μM): 1 ± 0%; IC50 (hAChE [1]): 61.3 µM; p38α MAPK RA (1 μM) (human p38α MAPK [6]; residual activity at 1 μM): 24 ± 0%; p38α MAPK RA (10 μM) (human p38α MAPK [6]; residual activity at 10 μM): 5 ± 0%
CN(C)CCNC(=O)c1cc2nn(CC3CCCCC3)cc2cc1Oc1ccc(F)cc1F [Compound 99, 2-(Cyclohexylmethyl)-5-(2,4-difluorophenoxy)-N-(2-(dimethylamino)ethyl)-2H-indazole-6-carboxamide] |  |  |  |  | 0.167 ± 0.0203 µM | 28.9 ± 8.16 µM | 6.78 ± 2.85 µM | IC50 (hAChE [10]): 28.9 µM; IC50 (p38α MAPK [11]): 6.78 µM
CC(C)Cn1ncc2cc(Oc3ccc4ccccc4c3)c(C(=O)NCCN(C)C)cc21 [Compound 90, N-(2-(Dimethylamino)ethyl)-1-isobutyl-5-(naphthalen-2-yloxy)-1H-indazole-6-carboxamide] |  | 9.5 ± 0.6% |  | 9.5 ± 0.6% | 11.5 ± 2 µM | 116 ± 27.8 µM |  | IC50 (hAChE [1]): 116 µM
Methyl-1-(cyclopropylmethyl)-5-(2,4-difluorophenoxy)-1H-indazole-6-carboxylate [Compound 27] |  |  | 81.1% and 81.1 ± 2.3% |  |  |  |  | hBChE RA at 100 μM (hBChE [5]): 76.6% and 76.6 ± 11.7%; IC50 (human p38α MAPK [6]; read-out: p38α MAPK IC50 ± SEM, two independent experiments, each in triplicate): 0.33 ± 0.158 µM
CN(C)CCNC(=O)c1cc2c(cnn2C2C=CCCC2)cc1Oc1ccc(F)cc1F (stereo not drawn) [Compound 83, 1-(Cyclohex-2-en-1-yl)-5-(2,4-difluorophenoxy)-N-(2-(dimethylamino)ethyl)-1H-indazole-6-carboxamide] | 52.9 ± 2.7% |  | 52.9% and 53 ± 3% and 52.9 ± 2.7% |  | 8.35 µM |  | 0.088 ± 0.02 µM | RA at 100 µM (hAChE [10]): 53 ± 3%; IC50 (hBChE [12]): 8.35 µM; IC50 (p38α MAPK [11]): 0.088 µM; IC50 (hBChE [2]): 8.35 µM
COc1ccc(Oc2cc3cnn(CC(C)C)c3cc2C(=O)NCCN(C)C)cc1 [Compound 91, N-(2-(Dimethylamino)ethyl)-1-isobutyl-5-(4-methoxyphenoxy)-1H-indazole-6-carboxamide] | 75.2 ± 3.8% | 0.9 ± 0.3% | 75.2% and 75.2 ± 3.8% | 0.9 ± 0.3% |  |  |  | RA at 100 µM (hBChE [2]): 54.1 ± 1.3%; hBChE RA at 100 μM (hBChE [5]): 54.1% and 54.1 ± 1.3%
N-(2-(1H-Pyrrol-1-yl)ethyl)-1-(cyclohexylmethyl)-5-(2,4-difluorophenoxy)-2H-indazole-6-carboxamide [Compound 104] |  |  | 67.6 ± 2.3% | 81.2% and 81.2 ± 6.6% |  |  |  | hBChE RA at 100 μM (hBChE [5]): 34.4±1.5%
CN(C)CCCNC(=O)c1cc2c(cnn2CC2CC2)cc1Oc1ccc(F)cc1F [Compound 74, 1-(Cyclopropylmethyl)-5-(2,4-difluorophenoxy)-N-(3-(dimethylamino)propyl)-1H-indazole-6-carboxamide] |  |  |  |  | 8.68 ± 1.83 µM | 110 ± 38.4 µM | 0.096 ± 0.011 µM | IC50 (hAChE [1]): 110 µM; IC50 (p38α MAPK [3]): 0.096 µM
CC(C)Cn1ncc2cc(Sc3ccc(F)cc3F)c(C(=O)NCCN(C)C)cc21 [Compound 92, 5-((2,4-Difluorophenyl)thio)-N-(2-(dimethylamino)ethyl)-1-isobutyl-1H-indazole-6-carboxamide] | 62.8 ± 3.0% |  | 62.8% and 63 ± 3% and 62.8 ± 3.0% |  | 2.25 µM |  | 0.053 ± 0.017 µM | RA at 100 µM (hAChE [10]): 63 ± 3%; IC50 (hBChE [12]): 2.25 µM; IC50 (p38α MAPK [11]): 0.053 µM; IC50 (hBChE [2]): 2.25 µM
CN(C)CCNC(=O)c1cc2c(cnn2CC2CCCCC2)cc1Oc1ccc(F)cc1F [Compound 75, 1-(Cyclohexylmethyl)-5-(2,4-difluorophenoxy)-N-(2-(dimethylamino)ethyl)-1H-indazole-6-carboxamide] |  |  |  |  | 2.89 µM and 2.9 µM | 64.4 ± 24.5 µM | 0.142 ± 0.079 µM | IC50 (hAChE [10]): 64.4 µM; IC50 (p38α MAPK [11]): 0.142 µM; IC50 (hAChE [1]): 64.4 µM
